Measurements taken from patent US20090098050A1, “CALCIUM BINDING PEPTIDES” (THE REGENTS OF THE UNVERSITY OF CALIFORNIA, priority 2005, published 2009).

Experiments:
[1] = Nucleation of hydroxyapatite on tooth enamel and dentin (SEM); set-up: species or system human; conditions: 12.5 μM peptide, SBFn 4 hours then SBFg
Protocol: FIG. 5: Nucleation of hydroxyapatite on enamel (top) and dentin (bottom) surfaces. Surfaces were prepared and treated as described in Example 6 and as indicated by the labels, followed by imaging using Scanning Electron Microscopy. The upper group (top two rows) represents enamel samples, while the lower group (bottom two rows) represents dentin samples. Within each group, the top row represents samples that were not demineralized prior to treatment, and the bottom row represents samples that were demineralized by treatment with phosphoric acid. Scanning Electron Micrographs are shown, scale bars=[…]. Left column: samples that were not exposed to any treatment prior to nucleation and crystal growth. Center column: samples that were exposed to buffer only prior to nucleation and crystal growth. Right column: samples that were exposed to 12.5 μM 8DSS peptide prior to nucleation and crystal growth. Crystal growth indicates early nucleation. To determine whether applying DSS to various preparations of tissue promoted HA nucleation, which could ultimately lead to tissue remineralization, sagittally sectioned adult human teeth (obtained after extraction during normal clinical practice) were polished using a Streurs grinding wheel, and prepared for nucleation experiments. […]

[2] = Tissue specificity of binding in demineralized and nondemineralized teeth (CLSM); set-up: species or system human; conditions: 12.5 μM labeled peptide
Protocol: FIG. 6: Tissue specificity of 8DSS peptide binding and its dependence on mineralization state. Demineralized and nondemineralized human teeth samples were incubated with 12.5 μM 5(6)-carboxyfluorescein-labeled 8DSS peptide as described in Example 9, and sections were rinsed and imaged by CLSM. […] The dentin-enamel junction, labeled DEJ, is clearly demarcated in both cases.
Sagitally sectioned human teeth were either demineralized by incubation with 0.5 M EDTA for 15 minutes or left nondemineralized. Samples were then incubated for ten minutes in a solution of 12.5 μM 5(6)-carboxyfluorescein-labeled 8DSS, 10 mM NaCl, and 50 mM HEPES, pH 7.0. Control samples were incubated without peptide. Sections were then rinsed and imaged by CLSM using identical laser and camera settings.

[3] = Binding of fluorescein-labeled peptides to hydroxyapatite nanocrystals (Langmuir isotherm); conditions: fluorescein-labeled peptide 0-100 μM, 0.3 mg hydroxyapatite, ten minutes, Langmuir fit
Protocol: FIG. 1: Binding affinities of DSS and DSS variant peptides for hydroxyapatite and tooth surfaces. A-C. Fluorescein-labeled peptides at concentrations ranging from 0-100 μM were incubated with 0.3 mg of hydroxyapatite nanocrystals (specific surface area=100 m^2/g) for ten minutes, followed by removal of the hydroxyapatite by centrifugation. The amount of peptide in the mixture before and after hydroxyapatite removal was determined by Abs480. Isotherms were plotted and fit to the Langmuir equation to extract values for KA, a constant reflecting the affinity of the peptide for the hydroxyapatite surface. D. Sagitally sectioned human teeth were incubated with 12.5 μM 5(6) carboxyfluorescein-labeled 6DSS peptide for ten minutes, followed by rinsing. Peptide binding to tooth surfaces was visualized by Confocal Laser Scanning Microscopy (CLSM) using blue laser illumination (λA=488 nm) and a FITC emission filter. Left side, light colored region: dentin. Right side, dark colored region: enamel.
Four DSS peptides containing two (2DSS, SEQ ID NO:12), four (4DSS, SEQ ID NO:13), six (6DSS, SEQ ID NO:14), or eight(8DSS, SEQ ID NO:15) Asp-Ser-Ser (DSS) repeats were generated. Peptides were labeled with fluorescein, and various concentrations of the labeled peptides (0-100 μM) were mixed with a fixed amount (0.3 mg) of hydroxyapatite nanocrystals having a specific surface area of 100 m^2/g (Berkeley Advanced Biomaterials, Inc.). Samples were incubated for ten minutes, followed by removal of the hydroxyapatite by centrifugation. The amount of peptide in the mixture was measured both before and after hydroxyapatite removal by spectroscopic absorbance at 480 nm (the peak absorbance of the fluorescein label). The amount of peptide bound was calculated by comparing the ratio of the final (Af) and initial (Ai) absorbances to the initial concentration (P0) [Pbound=[…]]. Plots were generated illustrating the amount of peptide bound per m^2 of hydroxyapatite surface area versus concentration of unbound peptide at equilibrium. The resulting isotherms were fit to the Langmuir isotherm (x/m=(KANMaxCeq)/(1+KACeq)) (Calis 1995), which describes the binding activity of a molecule in terms of a combination of binding affinity (KA) and avidity (NMax). KA represents the affinity constant of the peptide for the hydroxyapatite surface. In this equation, x/m represents the molar amount of peptide bound per unit of hydroxyapatite surface area, NMax represents the maximum surface concentration (mol/m^2), and Ceq represents the molar concentration of unbound peptide at equilibrium. The Langmuir isotherm describes the binding of molecules to surfaces with the conditions that 1) all binding sites have the same affinity for the peptide, and 2) the peptide will form a monolayer on the surface but cannot accumulate to higher levels. The excellent fit of the Langmuir isotherm to the experimental data validates these conditions, and these affinity constants were used for comparisons between peptides.

[4] = Binding to calcium oxalate crystals (fluorescence microscopy); conditions: 12.5 μM labeled peptide, ten minutes
Protocol: FIG. 11: Binding of 8DSS peptide to calcium oxalate. Calcium oxalate crystals were exposed to 12.5 μM 8DSS peptide, washed, and imaged by fluorescence microscopy as described in Example 12. […] The brightfield image (top) confirms the presence of crystals, while the fluorescence image of the same region (bottom) confirms that calcium oxalate has no visible fluorescence under these conditions. […] Calcium oxalate was prepared using a previously described method (Wang 2006). Crystals of calcium oxalate were washed with deionized water, then resuspended in a solution containing 50 mM HEPES pH 7.0, 10 mM NaCl, and 12.5 μM 5(6)-carboxyfluorescein-labeled 8DSS peptide. The crystal suspension was incubated at room temperature for ten minutes. The crystals were then harvested by centrifugation, washed twice with a solution of 50 mM HEPES pH 7.0 and 10 mM NaCl, and visualized by fluorescence microscopy as described in Example 11.

Substance: 8DSS: peptide containing eight Asp-Ser-Ser (DSS) repeats, SEQ ID NO:15 (DSSDSSDSSDSSDSSDSSDSSDSS; calcium binding peptide containing eight DSS repeats, 8DSS)
- Crystal growth (nucleation) on demineralized enamel [1]: significant crystal growth
- Crystal growth (nucleation) on nondemineralized dentin [1]: most significant growth
- Binding pattern in demineralized tooth tissue ([2]; demineralized sample): Primary binding is to the demineralized enamel (E) with little binding to the dentin (D)
- Binding pattern in nondemineralized tooth tissue ([2]; nondemineralized sample): primary binding is to the dentin (D) with little or no binding to the enamel (E)
- KA, affinity constant of the peptide for the hydroxyapatite surface [3]: 300,000 M^−1
- Staining of calcium oxalate aggregates [4]: significant staining
